Literature values, collected in patent US5883123A, “Butyrate prodrugs derived from lactic acid” (Vertex Pharmaceuticals, Inc., priority 1995, dated 1999).

What was measured:
tumor = conditions: mice
[1] = test system: Cultured Erythroleukemic Cells; conditions: in vitro

| Compound | anti-tumor and anti-leukemia effects (tumor) | cell differentiation [1] | effects in leukemia patients, by inducing cell differentiation (leukemia patients) |
| --- | --- | --- | --- |
| CCCC(=O)O [arginine butyrate] | anti-tumor and anti-leukemia effects in mice |  |  |
| CCCC(=O)O [butyric acid] |  | induces cell differentiation in vitro | promising effects in leukemia patients |
